In patent EP0060954A1, “Derivatives of fluorophenacyl amines and their therapeutic use” (LABORATOIRE L. LAFON Société anonyme dite:, priority 1981, dated 1982):
Several values for one entry are separate records, joined by “and”; a condition that tells them apart may be missing. Identical values can stand only once.

Legend:
[1] = tested on: souris mâles; experiment: Intergroup aggressiveness test (number of fights after removal of the partition); assay type: in vivo; conditions: mouse; dose not given
Source text: Des essais comparatifs ont été entrepris pour mettre en évidence quels sont les effets chez l'animal qui permettent de distinguer les produits selon l'invention de leurs homologues fluorés connus. Parmi ces essais, on a résumé ceux concernant les propriétés antiagressives. Plus précisément, on a évalué la diminution de l'agressivité intergroupes selon la technique suivante : a.près avoir séjourné pendant 3 semaines de part et d'autre d'une cloison opaque séparant leur cage par le milieu, des groupes de trois souris mâles de 20 g chacune environ reçoivent, par voie intrapéritonéale, les produits à tester en solution dans de l'eau distillée, les animaux témoins ne recevant que de l'eau distillée par voie intrapéritonéale. Une demi-heure plus tard, les deux groupes d'une même cage sont réunis par retrait de la cloison opaque et on note le nombre de combats qui surviennent en 10 min. On a utilisé trois cages pour chaque produit à tester et six cages pour le lot témoin ne recevant pas les produits à tester.
Les résultats du tableau I ci-après donnent la diminution de l'agressivité intergroupes par rapport au lot témoin, tous les produits à tester étant administrés à la dose de 8 mg/kg par voie intrapéritonéale. […]

[2] = tested on: souris; experiment: Four-plate test, traction and electroshock; assay type: in vivo; conditions: mouse, 30 min after dosing
Method: Le test est pratiqué sur des lots de 10 souris, 30 min après l'administration de CRL 40827.
(§1) En procédant selon les modalités opératoires données ci-dessus pour le CRL 40827, on observe ce qui suit.

[3] = tested on: rats; experiment: Interaction with amphetamine (stereotypies); assay type: in vivo, rat; conditions: rat
Method: L'amphétamine (2 mg/kg) est injectée par voie intrapéritonéale à des lots de 6 rats, 30 min après l'administration de CRL 40827. […] Interaction avec la réserpine
as §1

[4] = tested on: souris; experiment: Interaction with reserpine (hypothermia, ptosis); assay type: in vivo; conditions: mouse
Method: Quatre heures après l'injection intrapéritonéale de 2,5 mg/kg de réserpine, des lots de 6 souris reçoivent le CRL 40827.
as §1

[5] = tested on: cobaye; experiment: Local anaesthetic effect, intradermal injection, pin-prick test; assay type: in vivo; conditions: guinea pig, intradermal 0,2 ml, concentrations 0,5 and 1%
Method: L'effet anesthésique a été étudié chez le cobaye après injection du CRL 40827 par voie intradermique sous un volume de 0,2 ml aux concentrations de 0,1, 0,5 et 1% (3 cobayes par dose). Chaque animal reçoit le sérum physiologique, la procaine et le CRL 40827 dans des zones délimitées.
Le test qui consiste en une série de six piqûres de la zone injectée est réalisé 5, 10, 15, 20, 25 et 30 min après l'injection.

[6] = tested on: souris; experiment: Spontaneous motility (actimeter); assay type: in vivo; conditions: mouse, recorded 30 min, 30 min after dosing
Method: Une demi-heure après avoir reçu le CRL 40827, les souris (6 par dose, 12 témoins) sont placées en actimètre où leur motilité est enregistrée pendant 30 min.
as §1

[7] = tested on: chien anesthésié au Nembutal; experiment: Biliary secretion, dog anaesthetised with Nembutal; assay type: in vivo; conditions: normal 1,5 ml
Method: (§2) Chez le chien anesthésié au Nembutal, le débit biliaire normal recueilli en 30 min est de 1,5 ml; le débit biliaire augmente après injection intraduodénale de CRL 40827 et passe à 1,75 ml pour 2,5 mg/kg de CRL 40827, à 2,25 ml pour 5 mg/kg et à 2,5 ml pour 10 mg/kg. Chez le rat anesthésié au Nembutal, le débit biliaire augmente 1 à 3 h après injection I.V. de CRL 40827 aux doses de 5 mg/kg et 25 mg/kg.

[8] = tested on: rat éveillé génétiquement hypertendu; experiment: Cardiovascular action, awake genetically hypertensive rat; assay type: in vivo
[9] = tested on: rat; experiment: Interaction with apomorphine, rat; assay type: in vivo; conditions: i.p. 30 min before apomorphine 0,5 mg/kg s.c.
Method: (§3) Le CRL 40827, en solution dans de l'eau distillée, a été administré par voie intrapéritonéale sous un volume de 20 ml/kg chez la souris mâle et un volume de 5 ml/kg chez le rat mâle. 1°) - Toxicité
Le CRL 40 827 est administré à des lots de 6 rats 30 min avant l'injection sous-cutanée de 0,5 mg/kg d'apomorphine.
as §1

[10] = tested on: souris; experiment: Motility reduced by habituation to the enclosure; assay type: in vivo; conditions: mouse; high dose 34 mg/kg
Method: Après 18 h de séjour dans les actimètres, les souris (6 par dose, 12 témoins) reçoivent le CRL 40827. Elles sont aussitôt replacées dans leurs enceintes respectives et, 30 min plus tard, on enregistre leur motilité pendant 30 min.
as §1

[11] = tested on: homme; experiment: Clinical use as sedative and antidepressant agents; assay type: in vivo; conditions: clinic
[12] = tested on: rat anesthésié au Nembutal; experiment: Biliary secretion, rat anaesthetised with Nembutal; assay type: in vivo; conditions: 1 to 3 h after I.V. injection of 5 mg/kg and 25 mg/kg
Method: as §2

[13] = tested on: souris; experiment: Asphyxic anoxia (gallamine triethiodide); assay type: in vivo; conditions: mouse; highest dose 34 mg/kg, 30 min before gallamine triethiodide i.p.
Method: Des lots de 10 souris reçoivent le CRL 40827 30 min avant l'administration intrapéritonéale d: 34 mg/kg de triiodoéthy- late de gallamine. A la plus forte dose (34 mg/kg),le CRL 40827 empêche l'apparition des convulsions et de la mort chez 40% des animaux.
as §1

[14] = tested on: souris; experiment: Motility reduced by hypoxic aggression (acute hypobaric anoxia); assay type: in vivo; conditions: mouse
Method: Une demi-heure après avoir reçu le CRL 40827, les souris (10 par dose, 20 témoins) sont soumises à une anoxie hypobare aiguë (dépression de 8 x 10^4 Pa en 90 s, détente de 45 s), puis elles sont placées en actimètre où leur motilité est enregistrée pendant 10 min.
as §1

[15] = tested on: souris; experiment: Interaction with oxotremorine; assay type: in vivo; conditions: mouse
Method: Le CRL 40827 est administré à des lots de 6 souris 30 min avant l'injection intrapéritonéale de 0,5 mg/kg d'oxotrémo- rine. On observe que, dès la dose de 0,5 mg/kg, le CRL 40827 antagonise l'action hypothermisante de l'oxotrémorine; cet effet est très net à 32 mg/kg.
as §1

[16] = tested on: souris; experiment: Toxicity: maximal non-lethal dose DL-0, intraperitoneal; assay type: in vivo; conditions: mouse, i.p.
Method: La dose maximale non mortelle, DL-0, est supérieure à 128 mg/kg et inférieure à 256 mg/kg, chez la souris, par voie I.P. 2°) - Action sur le SNC
as §3
La dose maximale non mortelle, DL-0, est supérieure à 64 mg/kg et inférieure à 128 mg/kg chez la souris mâle.
Le CRL 40854, en solution dans de l'eau distillée, a été administré par voie intrapéritonéale sous un volume de 20 ml/kg chez la souris màle et de 5 ml/kg chez le rat màle.
La dose maximale non mortelle DL-0 est supérieure à 128 mg/kg et inférieure à 256 mg/kg chez la souris.

[17] = tested on: chien anesthésié; experiment: Cardiovascular and respiratory action, anaesthetised dog; assay type: in vivo

`CC(C)(C)NCC(O)c1ccccc1F` (stereo not drawn) [CRL 40827, chlorhydratede 1-(2-fluorophényl)-2-tertiobutylamino-1-éthanol] was tested, and the “agressivité intergroupes / effet antiagressif” value [1] was “diminue l'agressivité intergroupes”, the “effets convulsivants de l'électrochoc” value [2] was “à forte dose, s'oppose aux effets convulsivants” and the “incapacité motrice (traction)” value [2] was “ne provoque pas d'incapacité motrice majeure”. The “nombre de passages punis (test des quatre plaques)” value [2] was “n'entraîne pas d'augmentation”, the “index de stéréotypies (amphétamine)” value ([3]; 4 mg/kg) was “diminution isolée” and the “stéréotypies amphétaminiques” value ([3]; amphetamine 2 mg/kg i.p. 30 min after the compound) was “ne modifie pas”. For the same compound, the “ptôsis réserpinique” value [4] was “sans modifier”, the “hypothermie réserpinique” value ([4]; from 0,5 mg/kg, 4 h after reserpine 2,5 mg/kg i.p.) was “combat nettement” and the “effet anesthésique local” value [5] was “présente un effet anesthésique local”. The “activité motrice spontanée” value [6] was “ne modifie pratiquement pas”, the “débit biliaire recueilli en 30 min” value ([7]; dog, 5 mg/kg intraduodenal) was 2,25 ml and the “débit biliaire recueilli en 30 min” value ([7]; dog, 10 mg/kg intraduodenal) was 2,5 ml. The “débit biliaire recueilli en 30 min” value ([7]; dog, 2,5 mg/kg intraduodenal) was 1,75 ml, the “pression artérielle et fréquence cardiaque” value [8] was “hypotenseur et tachycardisant” and the “stéréotypies induites par l'apomorphine” value [9] was “laisse inchangées”. For the same compound, the “activité motrice (souris habituées à l'enceinte)” value [10] was “semble provoquer une reprise modérée”, the “résultats cliniques dans le domaine psychotrope en tant qu'agents sédatifs et antidépresseurs” value [11] was “bons résultats” and the débit biliaire [12] was “augmente”. For the same compound, the “animaux chez lesquels l'apparition des convulsions et de la mort est empêchée” value [13] was 40%, the “récupération motrice après anoxie hypobare” value [14] was “n'entraîne pas d'amélioration” and the “signes de stimulation cholinergique périphérique (oxotrémorine)” value [15] was “laisse inchangés”. The “tremblements provoqués par l'oxotrémorine” value [15] was “ne modifie pas”, the “action hypothermisante de l'oxotrémorine (antagonisme)” value ([15]; 32 mg/kg) was “très net” and the “action hypothermisante de l'oxotrémorine” value ([15]; from 0,5 mg/kg, 30 min before oxotremorine 0,5 mg/kg i.p.) was “antagonise”. The “dose maximale non mortelle, DL-0” value [16] was > 64 mg/kg and < 128 mg/kg, the minimal effective dose ([17]; Canis lupus familiaris, dog, read-out: dose from which the effets hypertenseurs de la noradrénaline are diminished) was 1 mg/kg and the “pression artérielle et fréquence cardiaque” value ([17]; anaesthetised dog) was “hypotenseur et tachycardisant”. For the same compound, the “dose of maximal effect on the effets hypertenseurs de la noradrénaline” value ([17]; dog) was ~10 mg/kg, the débit cardiaque ([17]; in vivo) was “reste égal” and the débits sanguins locaux ([17]; in vivo) was “n'augmentent pas”. The respiration ([17]; in vivo) was “stimule la respiration”, the “résistances vasculaires des territoires explorés (vertébral, fémoral et rénal) et résistance périphérique totale” value ([17]; in vivo) was “diminue” and the “travail du ventricule gauche et diastole” value ([17]; in vivo) was “diminue le travail du ventricule gauche et raccourcit la diastole”.
